Assay results taken from PMC9694488, “Amyloid beta and its naturally occurring N-terminal variants are potent activators of human and mouse formyl peptide receptor 1” (The Journal of Biological Chemistry, 2022).

Columns and labels:
[1] = test system: hFPR1; assay: Ca2+ imaging, HEK293T transiently transfected with hFPR1; type: cell-based, human
[2] = test system: hFPR2; assay: Ca2+ imaging, HEK293T transiently transfected with hFPR2; type: cell-based, human
Procedure: (§2) All peptides were thawed at room temperature approximately 1 h before each functional experiment, as this time was needed to prepare the compound plates for each measurement.
(§3) HEK293T cells (ATCC) were cultured in Dulbecco’s Modified Eagle’s medium (DMEM, Biowest) supplemented with 10% (v/v) heat-inactivated fetal calf serum (FCS, Pan Biotech), 1 unit/ml penicillin-streptomycin (Biowest), and 2 mM L-glutamine (Biowest) until 80% confluence. For transfection, approximately 2000 cells were seeded in each well of poly-D-lysine–coated (PDL) (10 μg/ml in PBS, Sigma) black optical 96-well μCLEAR-plates (Greiner Bio-One). Cells were transfected after 24 h using jetPEI (Polyplus-transfection SA) with 0.125 μg of DNA plasmids encoding the respective receptors and equal amounts of a plasmid encoding the G protein subunit Gα16 since this subunit is needed to trigger FPR-dependent calcium signals in HEK293 cells ([50], [70]). The medium of transfected cells was changed 24 h after transfection. For mock transfections, the proportion of the FPR-containing plasmids were substituted by an empty pcDNA3.1 vector.
(§4) Cell population responses of transfected HEK293T cells and U87 cells were recorded using a Flexstation III microplate reader (Molecular Devices). Briefly, cells were incubated with 2 μM Calbryte 520 AM (AAC Bioquest) for 2 h at room temperature in C1 assay buffer with 5 mM glucose (Carl Roth). Before each experiment, cells were rinsed three times with C1. Experiments with HEK293T cells were conducted 48 h after transfection, while experiments with U87 cells were performed 24 h after seeding. Acquisition of baseline fluorescence was performed for 25 s before ligand application, and cell population response was measured for 125 s after application.

[3] = test system: mFpr1; assay: Ca2+ imaging, HEK293T transiently transfected with mFpr1; type: cell-based, mouse; settings: for Ca2+ response, mFpr1: n = 3, N = 2
[4] = test system: mFpr2; assay: Ca2+ imaging, HEK293T transiently transfected with mFpr2; type: cell-based, mouse
Procedure: as §2, §3, §4

[5] = test system: mFpr3; assay: Ca2+ imaging, HEK293T transiently transfected with mFpr3; type: cell-based, mouse; settings: Aβ1-42 from P&E in C1 buffer; n = 3, N = 2
[6] = ThT aggregation assay; type: physicochemical
Procedure: DMSO. ThT (Sigma-Aldrich) stock solutions were dissolved at 1 mM in the respective buffer, sterile filtered with […] pore membranes, and stored at −20 °C. […] Fluorescence measurements were carried out as 100 μl triplicates in black optical 384-well μCLEAR-plates (Greiner Bio-One) at 37 °C with excitation at 440 nm and emission at 484 nm in a FlexStation III microplate reader within 15 min after thawing of the peptides. Signals were measured in intervals of 60 s for 120 min and were shaken for 3 s before each read.

[7] = CD spectroscopy (secondary structure); type: physicochemical; settings: 30 μM in C1, sonicated 10 min, n = 3, N = 1
Procedure: CD spectra were recorded (JASCO J-1500 spectrometer) in a 1 mm High Precision Cell (Hellma Analytics). Data were processed in Spectra Analysis by JASCO and were plotted by Origin.

[8] = Transmission electron microscopy of aggregates; type: physicochemical; settings: 30 μM, 24 h incubation
Source text: Samples were then stained with 4% uranyl acetate. Subsequently, TEM images were acquired (JEOL 1400 Transmission Electron Microscope) and then processed in ImageJ.

[9] = test system: human and mouse FPRs; assay: Ca2+ imaging, FPR-transfected HEK293T (several human and mouse FPRs taken together); type: cell-based
Procedure: as §2, §3, §4

[10] = test system: hFPR1, hFPR2, hFPR3; assay: Ca2+ imaging, human FPRs taken together; type: cell-based; settings: transfected HEK293T
[11] = test system: hFPR1; settings: compared with this study; ref Le et al. and Slowik et al. (35, 42); cited from earlier work
[12] = test system: mouse and human FPR1; design: method as in Tiffany et al.; settings: ref Tiffany et al.; cited from earlier work
[13] = test system: human and murine FPR2; settings: cell lines transfected with human and murine FPR2; cited from earlier work
Source text: (§1) The activation of PRRs by Aβ has become a recent focus in AD research because they have a special ability to potently trigger the reactive state ([14], [25]). Among these PRRs, FPRs are one of the promising targets for AD research ([12]). They belong to a small gene family of G protein–coupled receptors with three members in humans and seven in mice ([26]). FPRs are primarily expressed in the innate and adaptive immune system, where they contribute to the detection and elimination of bacterial pathogens ([27], [28], [29], [30]). However, they are also expressed in a number of cell types in the ...

[14] = test system: neutrophils and murine glial cells; settings: cited from earlier work
Source text: as §1

[15] = test system: primary murine glia and in vitro FPR expression systems; settings: cited from earlier work
Source text: as §1

[16] = test system: rat microglia and astrocytes; settings: cited from earlier work
Source text: as §1

[17] = test system: monocytes and microglia; settings: cited from earlier work
Source text: Factors such as the secondary structure, 3D conformation, and aggregation therefore seem to be of high importance for the precise activation pattern, and different receptor subtypes seem to prefer different peptide structures or exposed surfaces. Multiple previous studies have already shown that different buffer systems and solvents can critically influence properties of Aβ such as its aggregation kinetics and the structure ...

[18] = test system: hFPR3; assay: Ca2+ imaging, HEK293T transiently transfected with hFPR3
Procedure: as §2, §3, §4

[19] = 5 μM Aβ1-42 from P&E dissolved in DMSO vs C1, n = 3, N = 2
[20] = 5 μM Aβ1-42 from P&E, n = 3, N = 1
[21] = Aβ1-42 from Sigma-Aldrich, 10 μM, n = 3, N = 2
[22] = Aβ1-42 from Synpeptide, 10 μM, n = 3, N = 2
[23] = Ca2+ imaging, transfected HEK293T + Gα16, Calbryte 520, C1 buffer pH 7.2, n = 3, N = 1
[24] = different suppliers, buffers, storage, solvents
[25] = HFIP-treated Aβ1-42 from Anaspec, 10 μM, n = 3, N = 2

Aβ1-42: Amyloid beta peptide, human WT sequence; from Peptides&Elephants, Anaspec (untreated or HFIP-treated), Sigma-Aldrich, Synpeptide
decrease of hFPR1 response by DMSO [1, 19]: 40%
reduction of signal amplitude, hFPR1, in Tris–NaCl versus C1 [1, 20]: approximately 50%
Ca2+ response, hFPR1 ([1]; Aβ1-42 from P&E in C1 buffer, n = 3, N = 2, compared with the other FPRs): even more sensitive and had a higher signal amplitude than any other receptor
Ca2+ response, hFPR1 [1, 21]: failed to activate hFPR1
Ca2+ response, hFPR1 [1, 22]: the responses of hFPR1 and hFPR2 were lost
threshold for minimal detectable activation, hFPR1 ([1]; Ca2+ imaging, transfected HEK293T + Gα16, Calbryte 520, assay buffer C1 pH 7.2, peptide stock 30 μM in C1, n = 3, N = 1): 3 µM
Ca2+ response, hFPR2 [2, 22]: the responses of hFPR1 and hFPR2 were lost
threshold for minimal detectable activation, hFPR2 [2, 23]: 3 µM
Ca2+ response, mFpr1 ([3]; Aβ1-42 from P&E in C1 buffer, compared with the other FPRs): even more sensitive and had a higher signal amplitude than any other receptor
threshold for minimal detectable activation, mFpr1 [3, 23]: 500 nM
Ca2+ response, mFpr1 ([3]; HFIP-treated Aβ1-42 from Anaspec, 10 μM): weakly activated hFPR3, mFpr1, and mFpr2
mFpr1 activation over all suppliers, buffers and solvents [3, 24]: activated under almost all conditions
Ca2+ response, mFpr1 ([3]; non-HFIP–treated Aβ1-42 from Anaspec, 10 μM): potently activated mFpr1
threshold for minimal detectable activation, mFpr2 [4, 23]: 3 µM
Ca2+ response, mFpr2 [4, 25]: weakly activated hFPR3, mFpr1, and mFpr2
Ca2+ response, mFpr3 [5]: did not respond
capability to form aggregates in HBSS ([6]; Aβ1-42 from P&E, 22.5 μM, in HBSS, 37 °C): strong reduction in the capability to form aggregates
ThT fluorescence kinetics in the first 2 h ([6]; Aβ1-42 from Sigma-Aldrich, 22.5 μM in C1, 37 °C): did not drastically change
ThT fluorescence kinetics in the first 2 h ([6]; Aβ1-42 from Synpeptide, 22.5 μM in C1, 37 °C): did not drastically change
ThT fluorescence kinetics in the first 2 h ([6]; HFIP-treated Aβ1-42 from Anaspec (aggregation control), 22.5 μM, C1 with 0.2% DMSO, 37 °C): showed the expected increase
ThT fluorescence kinetics in the first 2 h ([6]; non-HFIP–treated Aβ1-42 from Anaspec, 22.5 μM in C1, 37 °C): showed a reduction of fluorescence
β-turn proportion in comparison with the Anaspec peptides ([7]; Aβ1-42 from P&E): significantly elevated β-turn proportions
β-turn proportion in comparison with the Anaspec peptides ([7]; Aβ1-42 from Synpeptide): significantly elevated β-turn proportions
TEM aggregate morphology ([8]; Aβ1-42 from P&E): somewhat similar amorphous morphology
TEM aggregate morphology ([8]; Aβ1-42 from Synpeptide): somewhat similar amorphous morphology
TEM aggregate morphology ([8]; HFIP-treated Aβ1-42 from Anaspec): somewhat similar amorphous morphology
TEM aggregate morphology ([8]; non-HFIP–treated Aβ1-42 from Anaspec): seemed to directly form long fibers
FPR responses in HBSS ([9]; 5 μM Aβ1-42 from P&E dissolved in HBSS, n = 3, N = 1): complete loss of nearly all FPR responses
FPR responses in C1 compared with HBSS and Tris–NaCl [9, 20]: most robust activation of human and mouse FPRs in C1
FPR response pattern after extended storage ([9]; 10 μM Aβ1-42 (Synpeptide), stored in C1 at -20 °C for 6 months vs freshly dissolved, n = 1, N = 2): Alterations of FPR responses
Ca2+ response pattern of mouse and human FPRs [9, 21]: elicited a similar response pattern as that of P&E
Ca2+ response, mouse and human FPRs other than mFpr1 ([9]; non-HFIP–treated Aβ1-42 from Anaspec, 10 μM, n = 3, N = 2): failed to activate any other mouse or human FPR
response of hFPRs (in addition to hFPR2) [10]: all other hFPRs also responded
hFPR1 response to Aβ1-42 in earlier studies [11]: far less pronounced
activation of mouse and human FPR1 in an earlier study [12]: failed to detect any activation of mouse and human FPR1
calcium mobilization and ERK signaling [13]: can induce calcium mobilization and ERK signaling
FPR2-dependent pro-inflammatory effects [14]: led to the induction of oxidative stress, the release of pro-inflammatory cytokines, and chemotaxis
intracellular uptake via FPRs [15]: FPRs mediate the intracellular uptake of Aβ1-42
cAMP and ERK phosphorylation in rat microglia and astrocytes [16]: induced a decrease of cAMP and an induction of ERK phosphorylation
FPR-dependent signaling with progressing aggregation [17]: lost FPR-dependent signaling with progressing aggregation
increase of hFPR3 response by DMSO [18, 19]: 32%
hFPR3 response in Tris–NaCl versus C1 [18, 20]: did not significantly alter the responses of hFPR3
threshold for minimal detectable activation, hFPR3 [18, 23]: 3 µM
Ca2+ response, hFPR3 [18, 25]: weakly activated hFPR3, mFpr1, and mFpr2
hFPR3 activation over all suppliers, buffers and solvents [18, 24]: activated under almost all conditions
